Assay results taken from patent publication US9586907B2, “Isothiocyanate compounds, pharmaceutical compositions, and uses thereof” (priority 2006, dated 2017).
Converted amounts (≈) assume the structure as drawn.

How the values were obtained:
[1] = tested on: Aspergillus fumigatus Rit 1; assay: Anti-fungal MIC, Aspergillus fumigatus Rit 1
[2] = tested on: Cryptococcus neoformans CNH99; assay: Anti-fungal MIC, Cryptococcus neoformans CNH99
Bacillus cereus [3] = assay: Bactericidal/bacteriostatic activity (CFU), Bacillus cereus; assay type: cell-based
[4] = tested on: Candida parapsilosis 22019; assay: Anti-fungal MIC, Candida parapsilosis 22019
[5] = tested on: Aspergillus fumigatus Rit 21; assay: Anti-fungal MIC, Aspergillus fumigatus Rit 21
Bacillus cereus [6] = assay: Pre-incubation of compound in MHB medium, inhibitory activity against Bacillus cereus; assay type: cell-based; settings: initial concentration equal to the MIC value; FIG. 5
Experimental: Preincubation of Compound 37 in Culture Medium and Its Effect on Growth-Inhibitory Activity. Compound 37 was added to liquid Muller-Hinton Broth (MHB) medium in microtiter plate to final concentration 2 mg/ml and incubated for the periods of time indicated in FIG. 5 before addition to cultures of B. cereus. After incubation for 20 h at 37° C., bacterial growth was assessed by measuring of the turbidity at 600 nm.
ITC compounds can react with amine- and thiol-containing components of the culture media with the formation of corresponding thioureas and dithiocarbamates. The effect of pre-incubation of Compound 37 in MHB medium on its inhibitory activity against Bacillus cereus was determined at an initial concentration equal to the MIC value. While no growth of the bacteria occurs upon immediate addition of the inhibitor, progressive growth is observed as a function of pre-incubation time.

Candida crusei 6258^mdr [7] = assay: microbe, parasite or virus in culture; settings: read-out: Anti-Fungal Activity (MIC)
[8] = tested on: Mycobacterium tuberculosis H37Rv strain; assay: In vitro infection model, bacterial growth inhibition in infected macrophages; assay type: cell-based; settings: M. tuberculosis H37Rv; up to 1 μg/mL; Rifampicin control
Source text: Rifampicin was used as a control for this experiment.

virus (92TH594) = assay: Viral proliferation in PBMC, p24 viral antigen; assay type: cell-based; settings: PBMC
Candida albicans 90028 = assay: Anti-fungal MIC, Candida albicans 90028
Bacillus cereus 4342 = assay: MIC, Bacillus cereus 4342
[9] = tested on: Candida albicans 5108^mdr; assay: Anti-fungal MIC, Candida albicans 5108^mdr
[10] = In vivo tolerance in mice; settings: highest dose, 50 mg/kg
[11] = tested on: human acute monocytic leukemia cells (THP1 cells); assay: Growth of THP1 cells, MTT metabolic assay; assay type: cell-based; settings: Homo sapiens, THP-1, 24 h, read-out: drop in cell viability
Experimental: THP1 cells were either mock-treated (DMSO vehicle alone), or treated with increasing doses of new compounds 37 and 45, from 0 to 32 μg/mL. Cells were incubated in the presence of compound for 24 hours, and subsequently were assayed for total cell viability using an MTT, metabolic assay.

[12] = tested on: human peritoneal macrophages infected with Mycobacterium tuberculosis H37Rv strain; assay: In vitro infection model, cytotoxicity; settings: up to 1 μg/mL; Rifampicin control
Candida dlabrata 250^mdr = assay: Anti-fungal MIC, Candida dlabrata 250^mdr
Staphylococcus aureus = assay: Bactericidal/bacteriostatic activity (CFU), Staphylococcus aureus; assay type: cell-based; settings: 1 to 2 hours, FIG. 2B
Candida albicans 90030 = assay: Anti-fungal MIC, Candida albicans 90030
[13] = tested on: Aspergillus fumigatus Rit 11; assay: Anti-fungal MIC, Aspergillus fumigatus Rit 11
Candida crusei 6258^mdr [14] = tested on: Candida crusei 6258^mdr
[15] = compound 2.5 μg/ml, added to the cells after viral infection
[16] = compound 2.5 μg/ml, added to the cells before viral infection
[17] = compound 10 μg/ml, added to the cells after viral infection
[18] = compound 10 μg/ml, added to the cells before viral infection
[19] = Bacillus cereus 4342, Gram +, 24 hours of incubation

Structure (SMILES): S=C=NCc1ccc(CN=C=S)cc1 [Compound 37]
- MIC ([1]; Aspergillus fumigatus, RIT1, read-out: Anti-Fungal Activity (MIC)): 0.5 µg/mL (≈ 2.27 µM)
- MIC ([2]; Cryptococcus neoformans, CNH99, read-out: Anti-Fungal Activity (MIC)): < 1 µg/mL
- bacterial growth at 20 h (Bacillus cereus [3]; Compound at 4 μg/ml, data not shown): no bacterial growth was detected
- cell viability of Bacillus cereus (CFU) (Bacillus cereus [3]; incubation 1 to 2 hours, FIG. 2A): dramatic decrease in cell viability
- MIC ([4]; 22019, read-out: Anti-Fungal Activity (MIC)): 0.5 µg/mL (≈ 2.27 µM)
- MIC ([5]; Aspergillus fumigatus, RIT21, read-out: Anti-Fungal Activity (MIC)): 0.5 µg/mL (≈ 2.27 µM)
- effect of pre-incubation in MHB medium on inhibitory activity (Bacillus cereus [6]): decrease of inhibition potency
- MIC (Candida crusei 6258^mdr [7]): 0.5 µg/mL (≈ 2.27 µM)
- growth inhibitory activity in infected macrophages [8]: gave similar results
- P24 values (virus (92TH594); [15]): 760 pg/mL
- P24 values (virus (92TH594); [16]): 210 pg/mL
- P24 values (virus (92TH594); [17]): 340 pg/mL
- P24 values (virus (92TH594); [18]): 0 pg/mL
- MIC (Candida albicans 90028; Candida albicans, 90028, read-out: Anti-Fungal Activity (MIC)): 0.5 µg/mL (≈ 2.27 µM)
- MIC (Bacillus cereus 4342; Bacillus cereus, 4342, 24 h): 2 µg/mL (≈ 9.08 µM)
- MIC ([9]; Candida albicans, read-out: Anti-Fungal Activity (MIC)): 0.5 µg/mL (≈ 2.27 µM)
- toxicity in treated mice [10]: no toxicity was observed
- cytotoxicity at 8 µg/mL [11]: ~25%
- cytotoxicity in infected macrophages [12]: exhibited more toxicity
- MIC (Candida dlabrata 250^mdr; Candida, 48 h, read-out: Anti-Fungal Activity (MIC)): 0.125 µg/mL (≈ 0.567 µM)
- effect on Staphylococcus aureus cultures (Staphylococcus aureus): bacteriostatic effect
- MIC (Candida albicans 90030; Candida albicans, 90030, read-out: Anti-Fungal Activity (MIC)): 0.5 µg/mL (≈ 2.27 µM)
- MIC ([13]; Aspergillus fumigatus, RIT11, read-out: Anti-Fungal Activity (MIC)): 0.5 µg/mL (≈ 2.27 µM)

Structure (SMILES): S=C=NCCCCCCCCN=C=S [Compound 42, S═C═N—(CH2)8—N═C═S]
- growth inhibitory activity in infected macrophages [8]: gave similar results
- P24 values (virus (92TH594); [15]): 630 pg/mL
- P24 values (virus (92TH594); [16]): 220 pg/mL
- P24 values (virus (92TH594); [17]): 700 pg/mL
- P24 values (virus (92TH594); [18]): 0 pg/mL
- MIC (Bacillus cereus 4342; [19]): 2 µg/mL (≈ 8.76 µM)
- toxicity in treated mice [10]: no toxicity was observed
- cytotoxicity in infected macrophages [12]: exhibited more toxicity

Structure (SMILES): S=C=NCCCCCCCN=C=S [Compound 41, S═C═N—(CH2)7—N═C═S]
- Anti-Fungal Activity (MIC) ([1]; Aspergillus fumigatus Rit 1): 4 µg/mL
- Anti-Fungal Activity (MIC) ([2]; Cryptococcus neoformans CNH99): <1 µg/mL
- Anti-Fungal Activity (MIC) ([4]; Candida parapsilosis 22019): 2 µg/mL
- Anti-Fungal Activity (MIC) ([5]; Aspergillus fumigatus Rit 21): 4 µg/mL
- Anti-Fungal Activity (MIC) (Candida albicans 90028; Candida albicans 90028): 8 µg/mL
- Anti-Fungal Activity (MIC) (Candida crusei 6258^mdr [14]): 2 µg/mL
- MIC (Bacillus cereus 4342; [19]): 2 µg/mL (≈ 9.33 µM)
- Anti-Fungal Activity (MIC) ([9]; Candida albicans 5108^mdr): 8 µg/mL
- Anti-Fungal Activity (MIC) (Candida dlabrata 250^mdr; Candida dlabrata 250^mdr): <1 µg/mL
- Anti-Fungal Activity (MIC) (Candida albicans 90030; Candida albicans 90030): <1 µg/mL
- Anti-Fungal Activity (MIC) ([13]; Aspergillus fumigatus Rit 11): 4 µg/mL
